The test concerns human neutrophils. Briefly: TNF-triggered H2O2 release (respiratory burst) by adherent human neutrophils. It counts as cell-based. Here is the method:
Contaminating erythrocytes were lysed by hypotonic shock for 45 seconds with 0.2% saline.
Briefly, 15,000 compounds were screened to identify specific inhibitors of TNF-triggered H2O2 release in human neutrophils. H2O2 release was measured as above except a few modifications to adapt to high throughput screening. […] Percent inhibition by each compound was calculated using the formula: […]
Briefly, 96-well flat-bottomed plates (Primaria, Falcon) were coated with 50 μl/well of FBS in 5% CO2 at 37° C. for at least 1 h and washed three times with 0.9% saline. Neutrophils (1.5×10^4) were added to triplicate wells containing 100 μl of reaction mixture (2.4 nm scopoletin, 0.5 μg horseradish peroxidase (HRP), and 1 mM NaN3) and stimulated with either buffer control, TNF (PreproTech, London, UK) or phorbol myristate acetate (PMA), each at 100 ng/ml. […] The supernatant from the H2O2 release assay with 1.5×10^4 neutrophils was used to measure degranulation using lactoferrin (LF) or myeloperoxidase (MPO) ELISA kit (Oxis International, Inc., Portland, Oreg.). Spontaneous cell death from the same supernatant was measured using Cytotoxicity Detection Kit (Roche Molecular Biochemicals, Nutley, N.J.). The total cell content of LF, MPO, and lactate dehydrogenase (LDH) was determined after lysing cells with 1% Triton X100. LDH is a cytosolic enzyme whose release indicates cell lysis, such that high release of LF or MPO in the face of low release of LDH is taken as a measure of degranulation.

pIC50: −log10 of the molar value.

Usually pIC50 stands for −log10 of the IC50, conventionally taken in molar units. For the compound `CC1=NN(c2ccccc2)C(=O)/C1=C\Nc1cccc2ccc(C)nc12` [Comp II′], the pIC50 (Homo sapiens, Neutrophil, 1.5 h, TNF 100 ng/ml, H2O2 release at 90 min, read-out: IC50, TNF triggered H2O2 release) is 7.66. Moreover, the “Concentration that consistently yielded over 95% inhibition on TNF triggered RB” value (empirically decided for each compound) was determined as 1 µM.

The record behind these values is patent US7977366B2, “Treating an inflammatory disorder or inhibiting respiratory burst in adherent neutrophils with chemical inhibitors of neutrophil activation” (Cornell Research Foundation, Inc., priority 2003, dated 2011).
